Laboratory results reported in PMC4447944 (The Journal of Biological Chemistry, 2015).

Columns and labels:
hEGFR(L858R,T790M) = molecular target: T1, hEGFR(L858R,T790M) (Homo sapiens, UniProt P00533, L858R/T790M); assay: KINOMEscan; assay type: binding
T1 construct: purchased DiscoverX

hRSK2(Kin.Dom.2-C-term) = molecular target: T2, hRSK2(Kin.Dom.2-C-term) (Homo sapiens, UniProt P51812); assay: KINOMEscan; assay type: binding
T2 construct: hRSK2(Kin.Dom.2-C-term); purchased DiscoverX (KINOMEscan platform)

hEGFR(G719C) = molecular target: T3, hEGFR(G719C) (Homo sapiens, UniProt P00533, G719C); assay: KINOMEscan; assay type: binding
T3 construct: purchased DiscoverX

hTIE1 = molecular target: T4, hTIE1 (Homo sapiens, UniProt P35590); assay: KINOMEscan; assay type: binding
T4 construct: purchased DiscoverX

hFLT3(D835Y) = molecular target: T5, hFLT3(D835Y) (Homo sapiens, UniProt P36888, D835Y); assay: KINOMEscan; assay type: binding
T5 construct: purchased DiscoverX

hFER = molecular target: T6, hFER (Homo sapiens, UniProt P16591); assay: KINOMEscan; assay type: binding
T6 construct: purchased DiscoverX

hMAP3K2 = molecular target: T7, hMAP3K2 (Homo sapiens, UniProt Q9Y2U5); assay: KINOMEscan; assay type: binding
T7 construct: purchased DiscoverX (KINOMEscan platform)

hFLT4 = molecular target: T8, hFLT4 (Homo sapiens, UniProt P35916); assay: KINOMEscan; assay type: binding
T8 construct: purchased DiscoverX
T8 sequence (P35916 25-1363): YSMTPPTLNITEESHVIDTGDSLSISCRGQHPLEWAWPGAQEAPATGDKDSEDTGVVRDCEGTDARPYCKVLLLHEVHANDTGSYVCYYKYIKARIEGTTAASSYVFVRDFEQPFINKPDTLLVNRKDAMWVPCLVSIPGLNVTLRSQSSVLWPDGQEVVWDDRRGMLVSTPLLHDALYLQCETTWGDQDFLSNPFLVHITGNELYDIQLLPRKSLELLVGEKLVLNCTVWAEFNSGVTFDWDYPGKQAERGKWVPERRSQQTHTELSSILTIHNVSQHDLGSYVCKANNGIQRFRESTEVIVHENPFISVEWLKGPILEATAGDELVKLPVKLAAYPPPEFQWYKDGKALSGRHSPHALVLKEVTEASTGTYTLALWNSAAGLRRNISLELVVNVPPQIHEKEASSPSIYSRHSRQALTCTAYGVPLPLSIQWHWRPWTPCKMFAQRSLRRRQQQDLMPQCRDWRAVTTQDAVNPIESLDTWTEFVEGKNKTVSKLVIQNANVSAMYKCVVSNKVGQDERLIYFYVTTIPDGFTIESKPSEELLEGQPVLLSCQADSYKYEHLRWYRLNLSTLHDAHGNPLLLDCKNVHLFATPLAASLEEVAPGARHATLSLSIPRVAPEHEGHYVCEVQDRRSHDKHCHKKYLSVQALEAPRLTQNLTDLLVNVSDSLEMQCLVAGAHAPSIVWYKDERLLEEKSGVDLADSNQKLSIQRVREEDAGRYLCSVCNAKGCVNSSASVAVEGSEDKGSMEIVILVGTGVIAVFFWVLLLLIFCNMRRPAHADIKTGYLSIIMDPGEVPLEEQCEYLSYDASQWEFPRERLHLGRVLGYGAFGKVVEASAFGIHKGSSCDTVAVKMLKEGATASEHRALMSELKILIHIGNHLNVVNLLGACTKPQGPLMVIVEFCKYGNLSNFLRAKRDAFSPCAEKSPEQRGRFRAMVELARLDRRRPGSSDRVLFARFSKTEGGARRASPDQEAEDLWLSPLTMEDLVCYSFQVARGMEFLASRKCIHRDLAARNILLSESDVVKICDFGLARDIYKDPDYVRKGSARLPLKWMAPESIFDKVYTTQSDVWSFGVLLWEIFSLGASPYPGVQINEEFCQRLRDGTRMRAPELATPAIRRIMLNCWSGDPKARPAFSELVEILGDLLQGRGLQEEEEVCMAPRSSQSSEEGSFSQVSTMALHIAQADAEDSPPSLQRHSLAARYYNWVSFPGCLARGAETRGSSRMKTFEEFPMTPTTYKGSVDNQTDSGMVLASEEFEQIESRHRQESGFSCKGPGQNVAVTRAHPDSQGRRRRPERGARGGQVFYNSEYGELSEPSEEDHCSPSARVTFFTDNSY

hMAP4K3 = molecular target: T9, hMAP4K3 (Homo sapiens, UniProt Q8IVH8); assay: KINOMEscan; assay type: binding
T9 construct: purchased DiscoverX (KINOMEscan platform)

hRSK3(Kin.Dom.1-N-term) = molecular target: T10, hRSK3(Kin.Dom.1-N-term) (Homo sapiens, UniProt Q15349); assay: KINOMEscan; assay type: binding
T10 construct: hRSK3(Kin.Dom.1-N-term); purchased DiscoverX (KINOMEscan platform)

hCLK3 = molecular target: T11, hCLK3 (Homo sapiens, UniProt P49761); assay: KINOMEscan; assay type: binding
T11 construct: purchased DiscoverX
T11 sequence (P49761 whole entry): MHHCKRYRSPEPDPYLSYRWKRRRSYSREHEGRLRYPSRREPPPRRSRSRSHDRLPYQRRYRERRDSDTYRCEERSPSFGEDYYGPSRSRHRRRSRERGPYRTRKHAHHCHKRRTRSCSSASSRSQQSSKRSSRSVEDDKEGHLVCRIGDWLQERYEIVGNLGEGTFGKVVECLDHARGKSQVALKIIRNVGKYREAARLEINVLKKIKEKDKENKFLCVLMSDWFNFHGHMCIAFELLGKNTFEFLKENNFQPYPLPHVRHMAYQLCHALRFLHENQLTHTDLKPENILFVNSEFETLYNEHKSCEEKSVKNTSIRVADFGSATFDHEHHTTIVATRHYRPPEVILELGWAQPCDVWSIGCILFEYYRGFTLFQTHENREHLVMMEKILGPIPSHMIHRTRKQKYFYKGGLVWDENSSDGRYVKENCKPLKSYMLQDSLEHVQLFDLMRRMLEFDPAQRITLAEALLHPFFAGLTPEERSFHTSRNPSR

hYSK1 = molecular target: T12, hYSK1 (Homo sapiens, UniProt O00506); assay: KINOMEscan; assay type: binding
T12 construct: purchased DiscoverX

hADRβ1 = hADRβ1 (Homo sapiens, UniProt P08588); assay: β-arrestin Antagonist (Eurofins-CEREP); conditions: read-out: % Effect, Inhibition
CYP3A4 = molecular target: T13, CYP3A4 (Homo sapiens, UniProt P08684); assay: Cytochrome p450 inhibition (Eurofins-CEREP); assay type: in vitro ADME
T13 construct: Eurofins-CEREP

hFLT3(R834Q) = molecular target: T14, hFLT3(R834Q) (Homo sapiens, UniProt P36888, R834Q); assay: KINOMEscan; assay type: binding
T14 construct: purchased DiscoverX

hTSSK1B = molecular target: T15, hTSSK1B (Homo sapiens, UniProt Q9BXA7); assay: KINOMEscan; assay type: binding
T15 construct: purchased DiscoverX

hFLT3(D835H) = molecular target: T16, hFLT3(D835H) (Homo sapiens, UniProt P36888, D835H); assay: KINOMEscan; assay type: binding
T16 construct: purchased DiscoverX

hICK = molecular target: T17, hICK (Homo sapiens, UniProt Q9UPZ9); assay: KINOMEscan; assay type: binding
T17 construct: purchased DiscoverX (KINOMEscan panel)
T17 sequence (Q9UPZ9 whole entry): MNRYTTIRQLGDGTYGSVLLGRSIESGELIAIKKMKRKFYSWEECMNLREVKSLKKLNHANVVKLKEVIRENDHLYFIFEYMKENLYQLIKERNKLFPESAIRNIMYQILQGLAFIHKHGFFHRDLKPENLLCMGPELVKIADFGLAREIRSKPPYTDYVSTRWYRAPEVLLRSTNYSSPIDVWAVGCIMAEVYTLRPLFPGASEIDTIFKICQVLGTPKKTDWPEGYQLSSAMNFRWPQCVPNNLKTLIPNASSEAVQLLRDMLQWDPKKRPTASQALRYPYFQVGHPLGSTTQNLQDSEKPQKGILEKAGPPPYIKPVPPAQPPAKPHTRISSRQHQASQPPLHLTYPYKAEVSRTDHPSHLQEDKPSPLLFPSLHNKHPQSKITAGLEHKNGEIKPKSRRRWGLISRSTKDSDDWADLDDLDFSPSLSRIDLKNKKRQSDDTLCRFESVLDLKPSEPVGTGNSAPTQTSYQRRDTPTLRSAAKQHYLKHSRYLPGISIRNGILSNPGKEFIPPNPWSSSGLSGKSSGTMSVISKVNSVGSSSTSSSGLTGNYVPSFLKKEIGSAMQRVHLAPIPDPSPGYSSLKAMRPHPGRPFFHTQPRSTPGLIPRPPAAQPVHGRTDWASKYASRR

hRAF1 = molecular target: T18, hRAF1 (Homo sapiens, UniProt P04049); assay: KINOMEscan; assay type: binding
T18 construct: purchased DiscoverX (KINOMEscan platform)

hSgK110 = molecular target: T19, hSgK110 (Homo sapiens, UniProt P0C264); assay: KINOMEscan; assay type: binding
T19 construct: purchased DiscoverX (KINOMEscan platform)
T19 sequence (P0C264 whole entry): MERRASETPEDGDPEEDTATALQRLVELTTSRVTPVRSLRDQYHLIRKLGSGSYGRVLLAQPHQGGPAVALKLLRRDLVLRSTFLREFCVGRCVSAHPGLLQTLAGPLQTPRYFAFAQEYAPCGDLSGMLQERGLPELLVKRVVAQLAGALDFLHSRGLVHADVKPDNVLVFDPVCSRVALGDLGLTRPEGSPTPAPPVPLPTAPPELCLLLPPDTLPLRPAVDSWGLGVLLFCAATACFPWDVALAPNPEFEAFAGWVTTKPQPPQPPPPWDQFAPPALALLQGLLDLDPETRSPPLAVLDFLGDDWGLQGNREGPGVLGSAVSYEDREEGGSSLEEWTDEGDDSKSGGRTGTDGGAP

hABL1(F317L) = molecular target: T20, hABL1(F317L) (Homo sapiens, UniProt P00519, F317L); assay: KINOMEscan; assay type: binding
T20 construct: purchased DiscoverX (KINOMEscan platform)

hMEK6 = molecular target: T21, hMEK6 (Homo sapiens, UniProt P52564); assay: KINOMEscan; assay type: binding
T21 construct: purchased DiscoverX

hABL1-p = molecular target: T22, hABL1-p (Homo sapiens, UniProt P00519); assay: KINOMEscan; assay type: binding
T22 construct: purchased DiscoverX (KINOMEscan platform)

hSTK35 = molecular target: T23, hSTK35 (Homo sapiens, UniProt Q8TDR2); assay: KINOMEscan; assay type: binding
T23 construct: purchased DiscoverX (KINOMEscan platform)
T23 sequence (Q8TDR2 whole entry): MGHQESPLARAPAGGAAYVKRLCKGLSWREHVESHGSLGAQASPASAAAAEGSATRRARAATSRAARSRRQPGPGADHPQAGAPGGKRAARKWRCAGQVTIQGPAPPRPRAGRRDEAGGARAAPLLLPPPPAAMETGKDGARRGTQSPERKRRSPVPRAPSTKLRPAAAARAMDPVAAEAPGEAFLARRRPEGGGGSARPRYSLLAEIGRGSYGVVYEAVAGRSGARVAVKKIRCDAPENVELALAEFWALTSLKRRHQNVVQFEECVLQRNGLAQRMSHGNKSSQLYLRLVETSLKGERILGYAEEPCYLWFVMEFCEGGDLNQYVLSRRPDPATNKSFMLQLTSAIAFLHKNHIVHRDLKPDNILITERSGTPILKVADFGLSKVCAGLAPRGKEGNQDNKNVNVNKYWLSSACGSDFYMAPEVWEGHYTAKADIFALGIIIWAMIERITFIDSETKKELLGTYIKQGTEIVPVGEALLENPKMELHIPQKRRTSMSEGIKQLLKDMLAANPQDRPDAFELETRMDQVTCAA

hRSK4(Kin.Dom.2-C-term) = molecular target: T24, hRSK4(Kin.Dom.2-C-term) (Homo sapiens, UniProt Q9UK32); assay: KINOMEscan; assay type: binding
T24 construct: hRSK4(Kin.Dom.2-C-term); purchased DiscoverX (KINOMEscan platform)

hACVR2A = molecular target: T25, hACVR2A (Homo sapiens, UniProt P27037); assay: KINOMEscan; assay type: binding
T25 construct: purchased DiscoverX (KINOMEscan platform)
T25 sequence (P27037 20-513): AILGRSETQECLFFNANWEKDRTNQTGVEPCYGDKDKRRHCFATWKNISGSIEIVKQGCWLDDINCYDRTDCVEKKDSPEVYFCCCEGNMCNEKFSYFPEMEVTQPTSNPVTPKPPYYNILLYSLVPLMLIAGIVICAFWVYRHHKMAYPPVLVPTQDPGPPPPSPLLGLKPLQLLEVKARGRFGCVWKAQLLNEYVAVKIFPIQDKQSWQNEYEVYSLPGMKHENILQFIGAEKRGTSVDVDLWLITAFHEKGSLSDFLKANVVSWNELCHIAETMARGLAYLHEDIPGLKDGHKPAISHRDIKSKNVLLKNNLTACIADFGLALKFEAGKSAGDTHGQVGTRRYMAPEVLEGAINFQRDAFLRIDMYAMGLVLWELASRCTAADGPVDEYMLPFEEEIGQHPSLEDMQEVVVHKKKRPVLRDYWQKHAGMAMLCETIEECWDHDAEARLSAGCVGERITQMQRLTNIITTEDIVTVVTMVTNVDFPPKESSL

hCDKL3 = molecular target: T26, hCDKL3 (Homo sapiens, UniProt Q8IVW4); assay: KINOMEscan; assay type: binding
T26 construct: purchased DiscoverX

hOPRm1 = hOPRm1 (Homo sapiens, UniProt P35372); assay: cAMP Agonist (Eurofins-CEREP); conditions: @ 1 μM
hTRPM6 = molecular target: T27, hTRPM6 (Homo sapiens, UniProt Q9BX84); assay: KINOMEscan; assay type: binding
T27 construct: purchased DiscoverX

hYANK3 = molecular target: T28, hYANK3 (Homo sapiens, UniProt Q86UX6); assay: KINOMEscan; assay type: binding
T28 construct: purchased DiscoverX

hADRα1A = molecular target: T29, hADRα1A (Homo sapiens, UniProt P35348); assay: Calcium Mobilization Agonist (Eurofins-CEREP); conditions: @ 13.3 μM
T29 sequence (P35348 1-466): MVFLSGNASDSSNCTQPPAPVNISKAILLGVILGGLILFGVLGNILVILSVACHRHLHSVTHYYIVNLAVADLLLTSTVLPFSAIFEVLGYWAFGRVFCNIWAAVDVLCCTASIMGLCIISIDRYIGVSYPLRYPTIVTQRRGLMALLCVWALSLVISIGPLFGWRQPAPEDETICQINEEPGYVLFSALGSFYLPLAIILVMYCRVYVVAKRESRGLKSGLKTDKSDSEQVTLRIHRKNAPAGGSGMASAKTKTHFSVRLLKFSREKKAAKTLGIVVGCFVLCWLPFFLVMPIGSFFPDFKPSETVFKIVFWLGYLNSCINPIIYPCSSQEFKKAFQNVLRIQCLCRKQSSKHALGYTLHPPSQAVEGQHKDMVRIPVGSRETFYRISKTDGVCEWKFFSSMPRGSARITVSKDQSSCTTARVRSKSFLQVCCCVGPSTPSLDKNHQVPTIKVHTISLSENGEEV

hABL1(T315I) = molecular target: T30, hABL1(T315I) (Homo sapiens, UniProt P00519, T315I); assay: KINOMEscan; assay type: binding
T30 construct: purchased DiscoverX (KINOMEscan platform)

hHIPK2 = molecular target: T31, hHIPK2 (Homo sapiens, UniProt Q9H2X6); assay: KINOMEscan; assay type: binding
T31 construct: purchased DiscoverX
T31 sequence (Q9H2X6 whole entry): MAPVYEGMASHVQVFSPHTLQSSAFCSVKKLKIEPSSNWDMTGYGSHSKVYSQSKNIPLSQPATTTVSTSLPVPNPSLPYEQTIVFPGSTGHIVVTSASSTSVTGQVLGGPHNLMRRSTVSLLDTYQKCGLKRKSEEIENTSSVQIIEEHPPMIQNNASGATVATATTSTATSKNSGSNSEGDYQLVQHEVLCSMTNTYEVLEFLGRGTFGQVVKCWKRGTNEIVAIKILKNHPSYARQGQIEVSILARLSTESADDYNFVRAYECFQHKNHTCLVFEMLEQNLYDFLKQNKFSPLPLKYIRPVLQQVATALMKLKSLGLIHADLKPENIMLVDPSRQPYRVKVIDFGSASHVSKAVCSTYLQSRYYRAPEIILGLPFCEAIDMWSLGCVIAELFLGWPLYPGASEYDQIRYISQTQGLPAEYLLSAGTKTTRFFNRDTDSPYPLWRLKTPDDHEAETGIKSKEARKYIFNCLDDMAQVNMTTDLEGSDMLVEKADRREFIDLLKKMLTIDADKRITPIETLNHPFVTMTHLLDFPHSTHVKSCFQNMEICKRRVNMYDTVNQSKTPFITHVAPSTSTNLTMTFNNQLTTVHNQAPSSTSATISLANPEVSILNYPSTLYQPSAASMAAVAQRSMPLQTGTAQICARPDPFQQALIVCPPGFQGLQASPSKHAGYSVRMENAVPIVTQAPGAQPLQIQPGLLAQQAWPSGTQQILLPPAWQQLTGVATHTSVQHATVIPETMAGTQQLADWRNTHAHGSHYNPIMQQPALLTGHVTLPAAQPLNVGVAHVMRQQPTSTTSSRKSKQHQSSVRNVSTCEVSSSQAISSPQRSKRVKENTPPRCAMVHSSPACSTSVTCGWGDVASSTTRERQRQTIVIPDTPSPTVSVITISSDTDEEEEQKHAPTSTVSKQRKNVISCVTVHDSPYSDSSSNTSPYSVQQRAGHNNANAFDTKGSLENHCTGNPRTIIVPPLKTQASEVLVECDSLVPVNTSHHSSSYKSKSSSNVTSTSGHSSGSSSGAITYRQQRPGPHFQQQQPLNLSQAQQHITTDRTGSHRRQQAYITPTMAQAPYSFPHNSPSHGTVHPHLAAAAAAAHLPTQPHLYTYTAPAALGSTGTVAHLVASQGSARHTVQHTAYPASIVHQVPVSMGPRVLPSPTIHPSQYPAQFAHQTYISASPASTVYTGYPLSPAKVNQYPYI

Compound: Cc1cn(CCN2CCN(c3ccccc3-c3cc(C#N)cc(C(=O)NCCCN4CCCC4)c3)CC2)c2ccccc12 [LLY-507, 3-cyano-5-{2-[4-[2-(3-methylindol-1-yl)ethyl]piperazin-1-yl]-phenyl}-N-[(3-pyrrolidin-1-yl)propyl]benzamide]
- IC50 (hEGFR(L858R,T790M)): > 20 µM
- IC50 (hRSK2(Kin.Dom.2-C-term)): > 20 µM
- IC50 (hEGFR(G719C)): > 20 µM
- IC50 (hTIE1): > 20 µM
- IC50 (hFLT3(D835Y)): > 20 µM
- IC50 (hFER): > 20 µM
- IC50 (hMAP3K2): > 20 µM
- IC50 (hFLT4): > 20 µM
- IC50 (hMAP4K3): > 20 µM
- IC50 (hRSK3(Kin.Dom.1-N-term)): > 20 µM
- IC50 (hCLK3): > 20 µM
- IC50 (hYSK1): > 20 µM
- inhibition at 10 µM (hADRβ1): -6%
- % inhibition @ 10 μM (CYP3A4): 69.1%
- IC50 (hFLT3(R834Q)): > 20 µM
- IC50 (hTSSK1B): > 20 µM
- IC50 (hFLT3(D835H)): > 20 µM
- IC50 (hICK): > 20 µM
- IC50 (hRAF1): > 20 µM
- IC50 (hSgK110): > 20 µM
- IC50 (hABL1(F317L)): > 20 µM
- IC50 (hMEK6): > 20 µM
- IC50 (hABL1-p): > 20 µM
- IC50 (hSTK35): > 20 µM
- IC50 (hRSK4(Kin.Dom.2-C-term)): > 20 µM
- IC50 (hACVR2A): > 20 µM
- IC50 (hCDKL3): > 20 µM
- % Effect, Stimulation (hOPRm1): 7.4%
- IC50 (hTRPM6): > 20 µM
- IC50 (hYANK3): > 20 µM
- % Effect, Stimulation (hADRα1A): -1.9%
- IC50 (hABL1(T315I)): > 20 µM
- IC50 (hHIPK2): > 20 µM
